Assay results from patent US20100173943A1, “INSECTICIDAL COMPOSITIONS WITH IMPROVED ACTION” (BAYER CROPSCIENCE AG, priority 2007, published 2010).
Where two headings read alike, the source gives them in different places.

Legend:
[1] = tested on: cotton aphid (Aphis gossypii); assay: Aphis gossypii test (APHIGO spray treatment); assay type: in vivo; settings: for pest or weed control at 4 ppm: 4 ppm a.i. alone
Protocol: Aphis gossypii Test (APHIGO Spray Treatment)
(§1) Solvent: 7 parts by weight of dimethylformamide
(§2) Emulsifier: 2 parts by weight of alkylaryl polyglycol ether
(§3) To prepare a ready-to-use active ingredient formulation, 1 part by weight of active ingredient is mixed with the specified amounts of solvent and emulsifier and the concentrate is diluted with emulsifier-containing water to the desired concentration. In the case that addition of ammonium salts, penetrants, or ammonium salts and penetrants is required, they are pipetted in each case into the finished preparation solution after dilution in a concentration of 1000 ppm each.
Cotton leaves (Gossypium hirsutum) highly infested by the cotton aphid (Aphis gossypii) are sprayed with an active ingredient formulation with the desired concentration.
After the desired period, the kill rate in % is determined. 100% means that all aphids have been killed; 0% means that no aphids have been killed.

[2] = tested on: green peach aphid (Myzus persicae); assay: Myzus persicae test (MYZUPE); assay type: in vivo; settings: for pest or weed control at 4 ppm: 4 ppm a.i. alone
Protocol: Myzus persicae Test (MYZUPE)
as §1, §2
as §3, with “prepare an appropriate” for “prepare a ready-to-use”, “the given” for “the specified”, “and emulsifier,” for “and emulsifier”, “are pippetted” for “are pipetted”
Pepper plants (Capsicum annuum) highly infested by the green peach aphid (Myzus persicaei) are treated by spraying with the active ingredient formulation in the desired concentration.
After the desired time, the kill rate in % is determined. 100% means that all animals have been killed; 0% means that no animals have been killed.

[3] = 0.8 ppm a.i. + AMS and RME 1000 ppm each, cotton leaves sprayed, 6 days
[4] = 0.8 ppm a.i. + ammonium sulphate 1000 ppm, cotton leaves sprayed, 6 days
[5] = 0.8 ppm a.i. + rapeseed oil methyl ester 1000 ppm, cotton leaves sprayed, 6 days
[6] = Aphis gossypii, 144 h, 0.8 ppm a.i. alone, cotton leaves sprayed, 6 days, read-out: Kill in % after 6 days a.i.
[7] = 4 ppm a.i. + AMS and RME 1000 ppm each, pepper plants sprayed, 6 days
[8] = 4 ppm a.i. + ammonium sulphate 1000 ppm, pepper plants sprayed, 6 days
[9] = 4 ppm a.i. + rapeseed oil methyl ester 1000 ppm, pepper plants sprayed, 6 days
[10] = Myzus persicae, 144 h, pepper plants sprayed, 6 days, read-out: Kill in % after 6 days a.i.
[11] = 4 ppm a.i. + AMS and RME 1000 ppm each, cotton leaves sprayed, 6 days
[12] = 4 ppm a.i. + ammonium sulphate 1000 ppm, cotton leaves sprayed, 6 days
[13] = 4 ppm a.i. + rapeseed oil methyl ester 1000 ppm, cotton leaves sprayed, 6 days
[14] = Aphis gossypii, 144 h, cotton leaves sprayed, 6 days, read-out: Kill in % after 6 days a.i.
[15] = 0.8 ppm a.i. + AMS and RME 1000 ppm each, pepper plants sprayed, 6 days
[16] = 0.8 ppm a.i. + ammonium sulphate 1000 ppm, pepper plants sprayed, 6 days
[17] = 0.8 ppm a.i. + rapeseed oil methyl ester 1000 ppm, pepper plants sprayed, 6 days
[18] = Myzus persicae, 144 h, 0.8 ppm a.i. alone, pepper plants sprayed, 6 days, read-out: Kill in % after 6 days a.i.

| Structure (SMILES) | Kill in % after 6 days +AMS + RME [1, 3] [%] | Kill in % after 6 days +AMS [1, 4] [%] | Kill in % after 6 days +RME [1, 5] [%] | pest or weed control at 0.8 ppm [1, 6] [%] | Kill in % after 6 days +AMS + RME [2, 7] [%] | Kill in % after 6 days +AMS [2, 8] [%] | Kill in % after 6 days +RME [2, 9] [%] | pest or weed control at 4 ppm [2, 10] [%] | Kill in % after 6 days +AMS + RME [1, 11] [%] | Kill in % after 6 days +AMS [1, 12] [%] | Kill in % after 6 days +RME [1, 13] [%] | pest or weed control at 4 ppm [1, 14] [%] | Kill in % after 6 days +AMS + RME [2, 15] [%] | Kill in % after 6 days +AMS [2, 16] [%] | Kill in % after 6 days +RME [2, 17] [%] | pest or weed control at 0.8 ppm [2, 18] [%] | further results |
| --- | --- | --- | --- | --- | --- | --- | --- | --- | --- | --- | --- | --- | --- | --- | --- | --- | --- |
| O=C1C=C(N(CCF)Cc2ccc(Cl)nc2)CO1 [Compound I-6, 4-{[(6-chloropyrid-3-yl)methyl](2-fluoroethyl)amino}furan-2(5H)-one] | 70 | 55 | 80 | 45 | 100 | 85 | 100 | 60 | – | – | – | – | – | – | – | – | Kill in % after 6 days +AMS + RME ([1]; 0.16 ppm a.i. + AMS and RME 1000 ppm each, cotton leaves sprayed, 6 days): 40%; Kill in % after 6 days +AMS ([1]; 0.16 ppm a.i. + ammonium sulphate 1000 ppm, cotton leaves sprayed, 6 days): 0%; Kill in % after 6 days +RME ([1]; 0.16 ppm a.i. + rapeseed oil methyl ester 1000 ppm, cotton leaves sprayed, 6 days): 25%; pest or weed control at 0.16 ppm ([1]; Aphis gossypii, 144 h, 0.16 ppm a.i. alone, cotton leaves sprayed, 6 days, read-out: Kill in % after 6 days a.i.): 0% |
| O=C1C=C(N(Cc2cnc(Br)c(F)c2)CC(F)F)CO1 [Compound I-16, 4-{[(6-bromo-5-fluoropyrid-3-yl)methyl](2,2-difluoroethyl)amino}-furan-2(5H)-one] | 5 | 10 | 10 | 0 | 100 | 99 | 98 | 95 | 90 | 95 | 98 | 80 | 10 | 0 | 10 | 5 | – |
| O=C1C=C(N(Cc2cnc(Br)c(F)c2)C2CC2)CO1 [Compound I-12, 4-{[(6-bromo-5-fluoropyrid-3-yl)methyl](cyclopropyl)amino}furan-2(5H)-one] | 25 | 5 | 10 | 0 | 95 | 95 | 100 | 85 | 75 | 80 | 85 | 55 | 45 | 0 | 10 | 5 | – |
| O=C1C=C(NCc2ccc(Cl)nc2)CCC1 [Compound I-37, 3-{[(6-chloropyrid-3-yl)methyl]amino}cyclohex-2-en-1-one] | – | – | – | – | – | – | – | – | – | – | – | – | – | – | – | – | Kill in % after 6 days +AMS + RME ([1]; 20 ppm a.i. + AMS and RME 1000 ppm each, cotton leaves sprayed, 6 days): 65%; Kill in % after 6 days +AMS ([1]; 20 ppm a.i. + ammonium sulphate 1000 ppm, cotton leaves sprayed, 6 days): 45%; Kill in % after 6 days +RME ([1]; 20 ppm a.i. + rapeseed oil methyl ester 1000 ppm, cotton leaves sprayed, 6 days): 40%; pest or weed control at 20 ppm ([1]; Aphis gossypii, 144 h, 20 ppm a.i. alone, cotton leaves sprayed, 6 days, read-out: Kill in % after 6 days a.i.): 55%; Kill in % after 6 days +AMS + RME ([2]; 20 ppm a.i. + AMS and RME 1000 ppm each, pepper plants sprayed, 6 days): 95%; Kill in % after 6 days +AMS ([2]; 20 ppm a.i. + ammonium sulphate 1000 ppm, pepper plants sprayed, 6 days): 35%; Kill in % after 6 days +RME ([2]; 20 ppm a.i. + rapeseed oil methyl ester 1000 ppm, pepper plants sprayed, 6 days): 90%; pest or weed control at 20 ppm ([2]; Myzus persicae, 144 h, 20 ppm a.i. alone, pepper plants sprayed, 6 days, read-out: Kill in % after 6 days a.i.): 20% |
| CN(Cc1ccc(Cl)nc1)C1=CC(=O)CC1 [Compound I-18, 3-{[(6-chloropyrid-3-yl)methyl](methyl)amino}cyclopent-2-en-1-one] | 90 | 50 | 75 | 65 | 100 | 95 | 100 | 80 | – | – | – | – | 70 | 0 | 98 | 25 | – |
| O=C1C=C(N(Cc2ccc(Cl)nc2)CC(F)F)CO1 [Compound I-7, 4-{[(6-chloropyrid-3-yl)methyl](2,2-difluoroethyl)amino}furan-2(5H)-one] | 80 | 60 | 70 | – | – | – | – | – | – | – | – | – | 90 | 45 | 80 | – | pest or weed control at 0.8 ppm ([1]; Aphis gossypii, 144 h, read-out: Kill in % after 6 days a.i.): 60%; pest or weed control at 0.8 ppm ([2]; Myzus persicae, 144 h, read-out: Kill in % after 6 days a.i.): 55% |
| CON(Cc1ccc(Cl)nc1)C1=CC(=O)OC1 [Compound I-29, 4-{[(6-chloropyrid-3-yl)methyl](methoxy)amino}furan-2(5H)-one] | – | – | – | – | – | – | – | – | 75 | 65 | 50 | 50 | 50 | 0 | 30 | 0 | – |
| CCCN(Cc1ccc(Cl)nc1)C1=CC(=O)CCC1 [Compound I-34, 3-{[(6-chloropyrid-3-yl)methyl](propyl)amino}cyclohex-2-en-1-one] | – | – | – | – | – | – | – | – | – | – | – | – | – | – | – | – | Kill in % after 6 days +AMS + RME ([1]; 100 ppm a.i. + AMS and RME 1000 ppm each, cotton leaves sprayed, 6 days): 45%; Kill in % after 6 days +AMS ([1]; 100 ppm a.i. + ammonium sulphate 1000 ppm, cotton leaves sprayed, 6 days): 20%; Kill in % after 6 days +RME ([1]; 100 ppm a.i. + rapeseed oil methyl ester 1000 ppm, cotton leaves sprayed, 6 days): 40%; pest or weed control at 100 ppm ([1]; Aphis gossypii, 144 h, 100 ppm a.i. alone, cotton leaves sprayed, 6 days, read-out: Kill in % after 6 days a.i.): 15%; Kill in % after 6 days +AMS + RME ([2]; 100 ppm a.i. + AMS and RME 1000 ppm each, pepper plants sprayed, 6 days): 85%; Kill in % after 6 days +AMS ([2]; 100 ppm a.i. + ammonium sulphate 1000 ppm, pepper plants sprayed, 6 days): 50%; Kill in % after 6 days +RME ([2]; 100 ppm a.i. + rapeseed oil methyl ester 1000 ppm, pepper plants sprayed, 6 days): 85%; pest or weed control at 100 ppm ([2]; Myzus persicae, 144 h, 100 ppm a.i. alone, pepper plants sprayed, 6 days, read-out: Kill in % after 6 days a.i.): 40% |
| CN(Cc1ccc(C(F)(F)F)nc1)C1=CC(=O)OC1 [Compound I-23, 4-(methyl {[6-(trifluoromethyl)pyrid-3-yl]methyl}amino)furan-2(5H)-one] | 25 | 15 | 50 | 10 | – | – | – | – | – | – | – | – | 80 | 10 | 75 | 35 | – |
